Reference: patent US20140328918A1, “METHODS OF TREATING A SUBJECT AND RELATED PARTICLES, POLYMERS AND COMPOSITIONS” (CERULEAN PHARMA INC., priority 2010, published 2014)
Where “and” joins values, the source holds several entries; their conditions need not be identical. Identical values can stand only once. Like-named read-outs stand apart in the source and are kept apart here.

Assays:
B 16.F10 cells = test: CellTiter-Glo cytotoxicity of nanoparticles formed from CDP-linker-docetaxel compounds (Example 131); format: cell-based, mouse; settings: CellTiter-Glo, 24, 48 and 72 hours of incubation
Description: To measure the cytotoxic effect of CDP-linker-docetaxel compounds, the CellTiter-Glo Luminescent Cell Viability Assay (CTG) was used. […] B 16.F10 cells, grown to 85-90% confluency in 150 cm2 flasks (passage<30), were resuspended in media (MEM-alpha, 10% HI-FBS, 1× antibiotic-antimycotic solution) and added to 96-well opaque-clear bottom plates at a concentration of 1500 cells/well in 200 μL/well. The cells were incubated at 37° C. with 5% CO2 for 24 hours. The following day, serial dilutions of 2× concentrated particles and 2× concentrated free drug were made in 12-well reservoirs with media to specified concentrations. The media in the plates was replaced with 100 μL of fresh media and 100 μL of the corresponding serially diluted drug. Three sets of plates were prepared with duplicate treatments. Following 24, 48 and 72 hours of incubation at 37° C. with 5% CO2, the media in the plates was replaced with 100 μL of fresh media and 100 μL of CTG solution, and then incubated for 5 minutes on a plate shaker at room temperature set to 450 rpm and allowed to rest for 15 minutes. Viable cells were measured by luminescence using a microtiter plate reader. The data was plotted as % viability vs. concentration and standardized to untreated cells.

[1] = Lyophilization and reconstitution of PEGylated nanoparticles: appearance and particle size (Zetasizer); format: physicochemical; settings: PLGA7K-PVA-PEG2K-30 and PLGA7K-PVA-PEG5K-30 PEGylated nanoparticle formulations, lyoprotectant/nanoparticle weight ratio 1:1
From the text: Nanoparticles comprising therapeutic agents were lyophilized using three different techniques. The first technique was a simple freeze drying technique where the liquid formulations were frozen with liquid nitrogen followed by drying under vacuum overnight at room temperature. During this simple lyophilization technique a Labconco® freeze dryer (available from Labconco Corp. of Kansas City, Mo.) was used. […] Instead of conventional multi-step ramping and holding, one step slow ramping was used in this approach.
Both the rapid cycle and conventional cycle lyophilization reactions were performed using a VirTis advantage freeze dryer.
A lyoprotectant screen was performed as follows. The critical point for design of a lyophilization cycle was to keep the temperature below the glass transition temperature (Tg′) of the lyoprotectant during the primary drying stage.
In this example, a new strategy of using cyclodextrins and their derivatives as a cryoprotectant was tested.
PEGylated nanoparticle formulations were analyzed for nanoparticle size prior to lyophilization, and lyophilized preparations that were completely resuspended by hand shaking were analyzed for nanoparticle size with a Zetasizer particle sizer. […] Prior to lyophilization, lyoprotectants and non-cyclic carbohydrates were added to PEGylated nanoparticle formulations at different weight ratios.

ADR-RES cells = test: Efficacy in docetaxel resistant model ADR-RES (Example 85); format: in vivo, female nu/nu mice
Description: ADR-RES cells were grown in culture to 85-90% confluency in RPMI medium supplemented with 10% fetal bovine serum (FBS), 1% glutamine and 1% penicillin/streptomycin.
(§1) The treatments were administered IV into the tail vein at a dose volume of 10 and 20 mL/kg for 30 and 60 mg/kg respectively, beginning on post-implantation day 47, when the mean tumor volume was ca. 150 mm^3 Body weight and tumor volume were measured for three times a week during the dosing period and twice a week thereafter. In addition, animals were also monitored for any morbidity and adverse effects for three times a week during the dosing period and twice a week thereafter.
Tumor volume was calculated with (width×width×length)/2 mm^3 formula. Efficacy was determined by tumor growth inhibition (TGI), tumor growth delay (TGD) and survival. Tumor growth inhibition (TGI) is represented as % and calculated as (1−(treated tumor volume/control tumor volume))×100 when the control group mean tumor volume reached ≧1000 mm^3 Tumor growth delay (TGD) is calculated by subtracting the day when the vehicle treated group reached the maximum tumor size 1000 mm^3 from the day when the treatment group tumor size reached 1000 mm^3.

[2] = Tolerability in normal non-tumor-bearing mice: body weight, CBC, serum chemistry, ataxia, sciatic nerve histopathology (Example 83); format: in vivo, male C57BL/6 mice
Description: Treatments were administered intravenously on a q7d×2 schedule, i.e., two treatments seven days apart (the first treatment was on Day one). The study ended on Day 14, six days after the 2nd treatment. Blood was collected for complete blood count (CBC) and serum chemistry. Leg muscles were collected so that nerve degeneration could be assessed from the sciatic nerve.

[3] = Tolerability in mouse melanoma model B16.F10 (Example 84); format: in vivo, male C57BL/6 mice; settings: 30 mg/kg, 1/wk×3
Description: (§2) The treatments were administered IV into the tail vein at a dose volume of 10 and 15 ml/kg for a corresponding dose of 30 mg/kg and 45 mg/kg respectively, beginning on post-implantation day 5, when the mean tumor volume was ca. 60 mm^3 Body weight and tumor volume were measured three times a week. In addition, animals were also monitored for any morbidity and adverse effects three times a week.

[4] = Tolerability in mouse melanoma model B16.F10 (Example 87); format: in vivo, male C57BL/6 mice; settings: 1/wk×3
Description: (§3) The treatments were administered IV into the tail vein at a dose volume of 10 ml/kg, beginning on post-implantation day 5, when the mean tumor volume was ca. 60 mm^3. Animals were monitored for any morbidity and adverse effects three times a week. In addition, body weight and tumor volume were also measured three times a week.

[5] = Tolerability in ADR-RES model (Example 85); format: in vivo, female nu/nu mice
Description: as §1

H1299 cells = test: Efficacy in non-small cell lung carcinoma model H1299 (Example 86); format: in vivo, male nu/nu mice; settings: 30 mg/kg
Description: H1299 cells were grown in culture to 85-90% confluency in RPMI medium supplemented with 10% fetal bovine serum (FBS), 1% glutamine and 1% penicillin/streptomycin. Cells were removed from the culture flask using 0.05% trypsin (passage=4), re-suspended in RPMI medium (density=50×10^6 cells/mL) and were implanted subcutaneously (5×10^6 cells in 100 μL RPMI medium/mouse) into the mammary fat pad area of male nu/nu mice on day 1.
(§4) The treatments were administered IV into the tail vein at a dose volume of 10 and 20 mL/kg for 30 and 60 mg/kg respectively, beginning on post-implantation day 30 when the mean tumor volume was ca. 170 mm^3 (small tumor group), and on day 37 when the mean tumor volume was ca. 440 mm^3 (large tumor group). Body weight and tumor volume were measured for three times a week during the dosing period and twice a week thereafter. In addition, animals were also monitored for any morbidity and adverse effects for three times a week during the dosing period and twice a week thereafter.
(§5) Tumor volume was calculated with (width×width×length)/2 mm^3 formula. Efficacy was determined by tumor growth inhibition (TGI), tumor growth delay (TGD) and survival. Tumor growth inhibition (TGI) is represented as % and calculated as (1−(treated tumor volume/control tumor volume))×100 when the control group mean tumor volume reached ≧1000 mm^3. Tumor growth delay (TGD) is calculated by subtracting the day when the vehicle treated group reached the maximum tumor size 1000 mm^3 from the day when the treatment group tumor size reached 1000 mm^3.

B16.F10 cells [6] = test: Efficacy of docetaxel-2′-alanine-glycolate and -2′-glycine-5050 PLGA-O-acetyl nanoparticles in mouse melanoma model B16.F10 (Example 87); format: in vivo, male C57BL/6 mice; settings: 1/wk×3
Description: B16.F10 cells were grown in culture to 85-90% confluency in MEM-alpha medium supplemented with fetal bovine serum (FBS) and 1% penicillin/streptomycin. Cells were removed from the flask using 0.05% trypsin (passage=4), re-suspended in PBS (density=10×10^6 cells/mL) and were implanted subcutaneously (1×10^6 cells in 100 μL PBS/mouse) into the right flank of male C57BL/6 mice on day 1.
as §3
Tumor volume was calculated with (width×width×length)/2 mm^3 formula. Efficacy was determined by tumor growth inhibition (TGI), tumor growth delay (TGD) and survival. Tumor growth inhibition (TGI) is represented as % and calculated as (1−(treated tumor volume/control tumor volume))×100 when the control group mean tumor volume reached ≧3000 mm^3. Tumor growth delay (TGD) is calculated by subtracting the day when the vehicle treated group reached the maximum tumor size 3000 mm^3 from the day when the treatment group tumor size reached 3000 mm^3. The criterion at which a mouse was removed from the study was tumor volume≧3000 mm^3

B16.F10 cells [7] = test: Efficacy of docetaxel-2′-5050 PLGA-O-acetyl nanoparticles in mouse melanoma model B16.F10 (Example 84); format: in vivo, male C57BL/6 mice; settings: 30 mg/kg, 1/wk×3
Description: B16.F10 cells were grown in culture to 85-90% confluency in MEM-alpha medium supplemented with 10% fetal bovine serum (FBS) and 1% penicillin/streptomycin. Cells were removed from the culture flask using 0.05% trypsin (passage=4), re-suspended in PBS (density=10×10^6 cells/mL) and were implanted subcutaneously (1×10^6 cells in 100 μL MEM-alpha medium/mouse) into the right flank of male C57BL/6 mice on day 1.
as §2
Tumor volume was calculated with (width×width×length)/2 mm^3 formula. Efficacy was determined by tumor growth inhibition (TGI), tumor growth delay (TGD) and survival. Tumor growth inhibition (TGI) is represented as % and calculated as (1−(treated tumor volume/control tumor volume))×100 when the control group mean tumor volume reached ≧3000 mm^3. Tumor growth delay (TGD) is calculated by subtracting the day when the vehicle treated group reached the maximum tumor size 3000 mm^3 from the day when the treatment group tumor size reached 3000 mm^3. […]

[8] = Tolerability in H1299 model (Example 86); format: in vivo, male nu/nu mice
Description: as §4, §5

[9] = Body weight and ataxia in MDA-MB-435 tumor-bearing mice (Example 82); format: in vivo, female CD-1 nude mice; settings: for body weight loss: weekly×two injections
Description: The treatments were administered IV into the tail vein at the dose volumes stated above, beginning on post-implantation Day 21, when the mean tumor volume was 150 mm^3 or, for one group, on Day 37, when the mean tumor volume for that group was 433 mm^3.

[10] = Particle properties (Zavg, PDI, Dv50, Dv90) by dynamic light scattering; format: physicochemical; settings: polymer conjugate
From the text: Particle solution properties were characterized by dynamic light scattering (DLS) spectrometer.

[11] = Stability of 1H NMR sample stored at ambient temperature; format: physicochemical; settings: 4 days
Description: Docetaxel-2′-aminoethyldithioethyl carbonate.DCA [2.77 g] was dissolved in DCM (100 mL) to produce a clear solution. It was washed with saturated NaHCO3 (2×40 mL). The organic layer was separated, dried over sodium sulfate and filtered. The filtrate was concentrated to ˜10 mL, to which heptanes (100 mL) was slowly added resulting in a suspension. It was stirred for 0.5 h and filtered (30 mL heptanes wash). The filter cake was vacuum-dried at ambient temperature for 16 h to afford the free base of CPX1231 [2.17 g, yield: 88%].

B16.F10 cells [12] = test: Efficacy of PEGylated docetaxel-5050 PLGA-O-acetyl nanoparticles (2k/5k mPEG-PLGA), B16.F10 murine melanoma (Example 79); format: in vivo, male C57BL/6 mice; settings: q7dx3, 30 mg/kg
Description: Refer to table for detailed description of formulations.
Tumor volume was calculated with the following equation: (width×width×length)/2 mm^3.

[13] = Body weight changes in A2780 tumor-bearing mice (Example 78); format: in vivo, female CD-1 nude mice; settings: Day 36
Description: The stock solution was diluted further with PBS to 1.5 mg/mL (for a dose of 15 mg/kg at 10 mL/kg and 30 mg/kg at 20 mL/kg). This formulation was made within 30 minutes of administration to mice.
The treatments were administered 2 times, on Day 8 and Day 15 (weekly×2 injections) for n=8 mice per group. […] On Day 50, the study was ended for all remaining mice. When removed from the study, mice were euthanized by CO2 inhalation.

[14] = Body weight and ataxia in SK-OV-3 tumor-bearing mice (Example 81); format: in vivo, female CD-1 nude mice; settings: 60 mg/kg, weekly×two injections
[15] = mouse, in vivo
Description: The stock solution was diluted further with PBS to 0.6, 1.5, 3, 4.5 and 6 mg/mL (for a corresponding dose of 6, 15, 30, 45 and 60 mg/kg) so that all the groups received the same amount of ethanol, polysorbate 80, water and PBS. […] 5) PEGylated O-acetyl-5050-PLGA nanoparticle vehicle at the highest concentration of 6 mg/mL.
The treatments were administered IV into the tail vein at a dose volume of 10 mL/kg, beginning on post-implantation Day 5, when the mean tumor volume was 55 mm^3. The treatments were administered 4 times, on Days 5, 8, 12 and 15 (biweekly×4 injections). On Day 17 post-tumor implantation, mice were euthanized by CO2 inhalation according to the procedure guideline. Blood was collected by cardiac puncture and put into ethylenediaminetetraacetic acid (EDTA) or serum separation blood collection tubes. Whole blood was analyzed on the day of collection for CBC analyses. After the blood clotted and was centrifuged, serum was frozen immediately on dry ice for serum chemistry analyses.
Tolerability was determined by changes in body weight, expressed as a percent of the initial body weight on post-implantation Day 5. […] Other indices of toxicity, complete blood count (CBC) and serum chemistry were determined from blood collected from animals that were euthanized on Day 17 by CO2 inhalation, according to the procedure guideline.

Compound: CDP-dithiolethyloxy-carbonate-docetaxel
- IC50 (B 16.F10 cells): 0.023 µM

Compound: OC[C@@H](O)[C@@H](O)[C@H](O)[C@H](O)CO [Mannitol, mannitol]
- maintenance of particle size after simple lyophilization [1]: None of mannitol, sucrose and trehalose worked at the same ratio

Compound: CC(=O)O[C@@]12CO[C@@H]1C[C@H](O)[C@@]1(C)C(=O)[C@H](O)C3=C(C)[C@@H](OC(=O)[C@H](O)[C@@H](NC(=O)OC(C)(C)C)c4ccccc4)C[C@@](O)([C@@H](OC(=O)c4ccccc4)[C@H]21)C3(C)C [Free docetaxel, docetaxel]
- survival on day 102 (ADR-RES cells; 30 mg/kg, 1/biwk×3): 50%
- survival on day 106 (ADR-RES cells; 30 mg/kg, 1/wk×2): 50%
- day mean tumor volume endpoint (≧1000 mm^3) reached (ADR-RES cells; 60 mg/kg, 1/wk×2): 106 days
- survival on day 106 (ADR-RES cells; 60 mg/kg, 1/wk×2): 50%
- serum chemistry parameters ([2]; q7d×2): did not affect any serum chemistry parameter at doses up to 60 mg/kg
- Maximum body weight loss (%) [3]: 12%
- Maximum body weight loss (%) ([4]; 15 mg/kg): 2%
- Maximum body weight loss (%) ([4]; 30 mg/kg): 12% and 14%
- Maximum body weight loss (%) ([5]; 30 mg/kg, 1/biwk×3): 9%
- body weight loss / hind limb paralysis ([5]; 30 mg/kg, 1/biwk×3): did not cause any significant body weight loss (<10%) or hind limb paralysis
- Maximum body weight loss (%) ([5]; 30 mg/kg, 1/wk×2): 6%
- body weight loss / hind limb paralysis ([5]; 30 mg/kg, 1/wk×2): did not cause any significant body weight loss (<10%) or hind limb paralysis
- Maximum body weight loss (%) ([5]; 60 mg/kg, 1/biwk×3): 21%
- body weight loss / hind limb paralysis ([5]; 60 mg/kg, 1/biwk×3): severe hind limb paralysis following the third injection
- Maximum body weight loss (%) ([5]; 60 mg/kg, 1/wk×2): 23%
- body weight loss / hind limb paralysis ([5]; 60 mg/kg, 1/wk×2): hind limb paralysis after the 2nd injection followed by recovery
- survival on day 61 (H1299 cells; large tumor group): 50%
- survival on day 80 (H1299 cells; large tumor group): 0%
- survival on day 56 (H1299 cells; small tumor group): 50%
- survival on day 68 (H1299 cells; small tumor group): 0%
- survival on day 29 (B16.F10 cells [6]; 15 mg/kg): 50%
- survival on day 43 (B16.F10 cells [6]; 15 mg/kg): 0%
- survival on day 36 (B16.F10 cells [6]; 30 mg/kg): 50%
- survival on day 40 (B16.F10 cells [6]; 30 mg/kg): 50%
- survival on day 43 (B16.F10 cells [6]; 30 mg/kg): 0%
- survival on day 45 (B16.F10 cells [6]; 30 mg/kg): 0%
- survival on day 40 (B16.F10 cells [7]): 50%
- survival on day 45 (B16.F10 cells [7]): 0%
- Maximum body weight loss (%) ([8]; 30 mg/kg, 1/wk×2, large tumor group): 19%
- Maximum body weight loss (%) ([8]; 30 mg/kg, 1/wk×2, small tumor group): 18%
- body weight loss / hind limb paralysis ([8]; 30 mg/kg, large tumor group): did not cause any significant body weight loss or hind limb paralysis
- body weight loss / hind limb paralysis ([8]; 30 mg/kg, small tumor group): did not cause any significant body weight loss or hind limb paralysis
- body weight loss / hind limb paralysis ([8]; 60 mg/kg, large tumor group): significant body weight loss and severe hind limb paralysis following the second injection
- body weight loss / hind limb paralysis ([8]; 60 mg/kg, small tumor group): significant body weight loss and severe hind limb paralysis following the second injection
- Ataxia ([9]; 60 mg/kg): Ataxia was observed four days after the second treatment

Compound: CDP-hexanoate-docetaxel [CDP-hexanoate-docetaxel nanoparticles]
- IC50 (B 16.F10 cells): 0.325 to 0.44 µM

Compound: OC[C@H]1O[C@@H]2O[C@H]3[C@H](O)[C@@H](O)[C@@H](O[C@H]4[C@H](O)[C@@H](O)[C@@H](O[C@H]5[C@H](O)[C@@H](O)[C@@H](O[C@H]6[C@H](O)[C@@H](O)[C@@H](O[C@H]7[C@H](O)[C@@H](O)[C@@H](O[C@H]1[C@H](O)[C@H]2O)O[C@@H]7CO)O[C@@H]6CO)O[C@@H]5CO)O[C@@H]4CO)O[C@@H]3CO [α-CD, α cyclodextrin]
- maintenance of particle size after simple lyophilization [1]: also worked at the same weight ratio

Compound: CDP-2′-glycine-docetaxel
- IC50 (B 16.F10 cells): 0.0012 to 0.0037 µM

Compound: CDP-Gly-SN-38
- particle size [10]: 27.9 nm

Compound: CC(=O)O[C@@]12CO[C@@H]1C[C@H](O)[C@@]1(C)C(=O)[C@H](O)C3=C(C)[C@@H](OC(=O)[C@H](OC(=O)OCCSSCCN)[C@@H](NC(=O)OC(C)(C)C)c4ccccc4)C[C@@](O)([C@@H](OC(=O)c4ccccc4)[C@H]21)C3(C)C [docetaxel-2′-aminoethyldithioethyl carbonate]
- degradation of 1H NMR sample [11]: no indication of degradation

Compound: OC[C@H]1O[C@H](O[C@H]2O[C@H](CO)[C@@H](O)[C@H](O)[C@H]2O)[C@H](O)[C@@H](O)[C@@H]1O [Trehalose, trehalose]
- maintenance of particle size after simple lyophilization [1]: None of mannitol, sucrose and trehalose worked at the same ratio

Compound: OC[C@H]1O[C@@H]2O[C@H]3[C@H](O)[C@@H](O)[C@@H](O[C@H]4[C@H](O)[C@@H](O)[C@@H](O[C@H]5[C@H](O)[C@@H](O)[C@@H](O[C@H]6[C@H](O)[C@@H](O)[C@@H](O[C@H]7[C@H](O)[C@@H](O)[C@@H](O[C@H]8[C@H](O)[C@@H](O)[C@@H](O[C@H]9[C@H](O)[C@@H](O)[C@@H](O[C@H]1[C@H](O)[C@H]2O)O[C@@H]9CO)O[C@@H]8CO)O[C@@H]7CO)O[C@@H]6CO)O[C@@H]5CO)O[C@@H]4CO)O[C@@H]3CO [γ-CD, γ cyclodextrin]
- maintenance of particle size after simple lyophilization [1]: also worked at the same weight ratio

Compound: CDP-Alanine Glycolate-Docetaxel
- IC50 (B 16.F10 cells): 0.0004 to 0.002 µM

Compound: OC[C@H]1O[C@@](CO)(O[C@H]2O[C@H](CO)[C@@H](O)[C@H](O)[C@H]2O)[C@@H](O)[C@@H]1O [Sucrose, sucrose]
- maintenance of particle size after simple lyophilization [1]: None of mannitol, sucrose and trehalose worked at the same ratio

Compound: CC(=O)O[C@@]12CO[C@@H]1C[C@H](O)[C@@]1(C)C(=O)[C@H](O)C3=C(C)[C@@H](OC(=O)[C@H](O)[C@@H](NC(=O)OC(C)(C)C)c4ccccc4)C[C@@](O)([C@@H](OC(=O)c4ccccc4)[C@H]21)C3(C)C [docetaxel]
- body weight above the initial on Day 14 ([2]; 30 mg/kg q7d×2): 3%
- body weight above the initial on Day 14 ([2]; 45 mg/kg q7d×2): 2%
- weight gained at the second treatment ([2]; 30 and 45 mg/kg q7d×2): up to 7%
- day average tumor volume reached the end point of 3000 mm^3 (B16.F10 cells [12]): 37 days
- % of the initial body weight ([13]; 15 mg/kg): 113±11%
- % of the initial body weight ([13]; 30 mg/kg): 105±9%
- Ataxia [14]: observed in all the mice four days after the second treatment
- body weight loss ([9]; 15 mg/kg): 10%
- body weight loss ([9]; 30 mg/kg): 14%
- serum chemistry parameters [15]: did not affect any serum chemistry parameter at doses up to 30 mg/kg
